The target of one experiment is human C3bBb (Homo sapiens (Human), UniProt P00751). Kind of experiment: Human C3bBb enzyme assay (C3a generation from C3, ELISA). The experiment is classed as biochemical. The conditions noted are these: starred values: assay conducted with 1 nM C3b:Bb enzyme; read-out: Human C3b:Bb IC50 Avg. The method, then:
Compounds disclosed herein were evaluated for their potency to inhibit human C3bBb in a biochemical assay. To generate active C3bBb complex in vitro, purified human C3b (Complement Technology, A114), CFB (Complement Technology, A135) and CFD (Complement Technology, A136) were mixed in a 1:1:1 ratio to a final concentration of 1 μM each in the C3bBb assay buffer (PBS pH 7.4, 100 μM NiCl2, 0.05% (w/v) CHAPS). The reaction mix was incubated at room temperature for 30 minutes on a rotating platform. […] On the day of the enzyme assay, a reaction mixture containing 3 nM C3bBb complex and 1 μM purified human C3 (Complement Technology, A113) was prepared in the C3bBb assay buffer. Compounds were serial diluted 3-fold in 100% DMSO for a 10-point dose-response curve. A 0.5 μL aliquot of diluted compound solution was transferred to a conical bottom 96-well plate, before 49.5 μL of the reaction mix was added to each well to initiate the reaction. The plate was incubated for 1 hour at room temperature. […] The generation of C3a from C3 by the C3bBb complex was measured using the MicroVue C3a Plus EIA ELISA kit (Quidel, A031). The concentration of C3a from each well was calculated using a standard curve. Percent inhibition values were generated using the baseline (C3 only) and the maximum control (DMSO instead of compound), and IC50 of each compound was calculated using 4-parameter logistic regression.
(An ELISA detects its analyte on a solid surface through an enzyme-linked reagent.)

In experiment [1] the test system is MAC formation in normal human serum. Put plainly: Human serum MAC formation assay (zymosan-coated plates, 50% normal human serum). The conditions noted are these: 50% normal human serum with EGTA, 37° C. 30 minutes. Here is the method: MAC deposition assay using normal human serum was applied to evaluate compound potency under physiologically relevant conditions. Black Maxisorp plates (Thermo Fisher, 437111) were coated with preactivated zymosan (Complement Technology, B400) at 0.5 mg/mL in carbonate buffer (pH 9.5, Sigma, C3041) at room temperature overnight. Compounds were serial diluted 3-fold in 100% DMSO for a 10-point dose-response curve. Normal human serum (Complement Technology, NHS) was diluted to 50% (v/v) with the gelatin buffer (4.2 mM HEPES pH 7.4, 0.15 mM CaCl2, 141 mM NaCl, 4.5 mM MgCl2, 0.1% gelatin) containing 20 mM EGTA or 20 mM EDTA. In conical bottom 96-well plates, 1 μL compound and 99 μL of serum-EGTA were mixed. Serum-EDTA was used as baseline control. The serum-compound mixture was incubated at room temperature for 15 minutes before being transferred to the washed zymosan plate for complement activation at 37° C. for 30 minutes. The reaction was terminated by decanting the reaction mixture and adding blocking buffer (Thermo Fisher, 37539) for 20 minutes. MAC formation on the ELISA plate was detected using 0.2 μg/mL mouse anti-human C9 neoepitope monoclonal antibody (Thermo Fisher, MA5-33373) diluted in phosphate-buffered saline with 0.05% Tween-20 (PBST). A goat anti-mouse IgG-HRP antibody (Thermo Fisher, A16072) was used at 1:2000 in PBST as secondary antibody. After washing, the reaction was developed using QuantaBlu (Thermo Fisher, 15169) for 20 minutes at room temperature. The plates were read at 325 nm excitation and 420 nm emission wavelengths. Percent inhibition values were generated using the baseline (EDTA-serum) and the maximum control (EGTA-serum). An IC50 for each compound was calculated using 4-parameter logistic regression.

Sequence of human C3bBb (P00751 260-764): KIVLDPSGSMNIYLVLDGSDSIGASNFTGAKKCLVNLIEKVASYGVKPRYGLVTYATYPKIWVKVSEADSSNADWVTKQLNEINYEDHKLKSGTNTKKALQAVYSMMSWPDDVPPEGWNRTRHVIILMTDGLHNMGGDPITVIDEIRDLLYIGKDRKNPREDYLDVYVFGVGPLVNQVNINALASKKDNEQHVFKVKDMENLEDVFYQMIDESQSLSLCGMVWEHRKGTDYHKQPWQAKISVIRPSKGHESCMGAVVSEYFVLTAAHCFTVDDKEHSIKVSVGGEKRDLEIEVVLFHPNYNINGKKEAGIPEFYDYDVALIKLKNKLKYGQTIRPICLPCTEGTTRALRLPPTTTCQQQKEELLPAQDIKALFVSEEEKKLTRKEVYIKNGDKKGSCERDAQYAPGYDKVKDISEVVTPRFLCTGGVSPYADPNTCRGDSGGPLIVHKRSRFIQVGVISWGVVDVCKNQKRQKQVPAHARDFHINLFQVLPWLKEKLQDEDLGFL
Sequence of human C3bBb (P01024 23-667 partner): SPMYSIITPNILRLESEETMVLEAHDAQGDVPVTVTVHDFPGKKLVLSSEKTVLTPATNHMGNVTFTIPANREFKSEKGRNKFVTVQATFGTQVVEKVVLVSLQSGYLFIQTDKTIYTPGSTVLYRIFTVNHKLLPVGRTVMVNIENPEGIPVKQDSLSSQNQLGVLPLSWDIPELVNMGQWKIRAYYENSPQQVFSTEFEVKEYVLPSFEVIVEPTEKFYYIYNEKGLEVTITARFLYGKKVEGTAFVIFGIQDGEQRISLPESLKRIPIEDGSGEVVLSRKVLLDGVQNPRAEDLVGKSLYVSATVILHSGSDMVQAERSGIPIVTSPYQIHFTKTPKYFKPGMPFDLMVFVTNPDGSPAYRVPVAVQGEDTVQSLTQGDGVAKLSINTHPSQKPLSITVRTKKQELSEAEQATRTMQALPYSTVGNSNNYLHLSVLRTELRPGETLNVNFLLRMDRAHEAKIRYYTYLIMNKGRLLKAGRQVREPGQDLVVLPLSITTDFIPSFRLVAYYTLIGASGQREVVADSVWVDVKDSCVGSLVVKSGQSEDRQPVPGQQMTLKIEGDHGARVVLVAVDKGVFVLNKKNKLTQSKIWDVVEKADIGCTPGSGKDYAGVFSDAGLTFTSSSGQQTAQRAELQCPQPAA
Sequence of human C3bBb (P01024 749-1663 partner): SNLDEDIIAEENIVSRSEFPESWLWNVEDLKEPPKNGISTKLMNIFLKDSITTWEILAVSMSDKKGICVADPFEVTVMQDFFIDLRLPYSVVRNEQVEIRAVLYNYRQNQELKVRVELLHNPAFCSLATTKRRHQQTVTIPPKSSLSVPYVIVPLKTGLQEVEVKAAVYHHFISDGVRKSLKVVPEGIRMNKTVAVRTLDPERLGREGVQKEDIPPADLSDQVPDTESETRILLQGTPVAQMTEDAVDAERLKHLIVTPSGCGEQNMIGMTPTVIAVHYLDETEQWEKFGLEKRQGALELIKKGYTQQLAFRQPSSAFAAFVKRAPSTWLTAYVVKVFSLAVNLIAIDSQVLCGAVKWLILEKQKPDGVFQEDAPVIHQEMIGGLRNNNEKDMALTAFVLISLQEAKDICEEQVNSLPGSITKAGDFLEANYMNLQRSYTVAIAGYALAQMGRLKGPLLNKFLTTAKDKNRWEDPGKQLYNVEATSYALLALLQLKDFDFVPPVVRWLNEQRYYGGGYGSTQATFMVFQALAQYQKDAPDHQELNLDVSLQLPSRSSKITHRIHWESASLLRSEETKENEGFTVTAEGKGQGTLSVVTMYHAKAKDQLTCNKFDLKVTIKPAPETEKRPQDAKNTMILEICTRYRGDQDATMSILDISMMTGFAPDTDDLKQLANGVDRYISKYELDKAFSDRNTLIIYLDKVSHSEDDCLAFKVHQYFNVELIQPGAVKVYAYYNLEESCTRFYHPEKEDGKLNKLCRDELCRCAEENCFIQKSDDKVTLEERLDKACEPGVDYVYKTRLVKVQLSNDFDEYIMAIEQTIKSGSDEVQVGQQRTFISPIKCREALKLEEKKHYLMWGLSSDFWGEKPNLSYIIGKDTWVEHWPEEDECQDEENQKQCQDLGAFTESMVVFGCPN

Usually IC50 stands for the concentration at which inhibition is half-maximal. Take `COc1cc(C)c2[nH]ccc2c1CN1CC[C@@]2(CCOC2)C[C@H]1c1ccc(C(=O)O)cc1` (single isomer, unassigned) [Example 34, 4-((5S,7S)-8-((5-methoxy-7-methyl-1H-indol-4-yl)methyl)-2-oxa-8-azaspiro[4.5]decan-7-yl)benzoic acid or 4-((5R,7S)-8-((5-methoxy-7-methyl-1H-indol-4-yl)methyl)-2-oxa-8-azaspiro[4.5]decan-7-yl)benzoic acid]: the figures for the IC50 (on human C3bBb; in experiment [1]) were < 0.01 µM and 0.1 to 0.2 µM, respectively.
In the case of `COc1cc(C)c2[nH]ccc2c1CN1CC[C@]2(CCC(F)(F)C2)C[C@H]1c1ccc(C(=O)O)cc1` (single isomer, unassigned) [Example 35, 4-(5R,7S)-(2,2-difluoro-8-((5-methoxy-7-methyl-1H-indol-4-yl)methyl)-8-azaspiro[4.5]decan-7-yl)benzoic acid or 4-(5S,7S)-(2,2-difluoro-8-((5-methoxy-7-methyl-1H-indol-4-yl)methyl)-8-azaspiro[4.5]decan-7-yl)benzoic acid], the IC50 at human C3bBb was < 0.01 µM; in experiment [1], < 0.1 µM.
In the same order, the values of `COc1cc(C)c2[nH]ccc2c1CN1CC[C@]2(CCC(F)(F)C2)C[C@H]1c1ccc(C(=O)O)cc1` (single isomer, unassigned) [Example 36, 4-(5R,7S)-(2,2-difluoro-8-((5-methoxy-7-methyl-1H-indol-4-yl)methyl)-8-azaspiro[4.5]decan-7-yl)benzoic acid or 4-(5S,7S)-(2,2-difluoro-8-((5-methoxy-7-methyl-1H-indol-4-yl)methyl)-8-azaspiro[4.5]decan-7-yl)benzoic acid] are < 0.01 µM and < 0.1 µM.
On the same counts, the results for `COc1cc(C)c2[nH]ccc2c1CN1CC[C@]2(C[C@H]1c1ccc(C(=O)O)cc1)C[C@@H](C(F)F)C2` (single isomer, unassigned) [Example 46, 4-((2R,4s,6S)-2-(difluoromethyl)-7-((5-methoxy-7-methyl-1H-indol-4-yl)methyl)-7-azaspiro[3.5]nonan-6-yl)benzoic acid or 4-((2S,4r,6S)-2-(difluoromethyl)-7-((5-methoxy-7-methyl-1H-indol-4-yl)methyl)-7-azaspiro[3.5]nonan-6-yl)benzoic acid] are < 0.01 µM and 0.1 to 0.2 µM.
As to `COc1cc(C)c2[nH]ccc2c1CN1CC[C@]2(C[C@H]1c1ccc(C(=O)O)cc1)C[C@@H](C(F)F)C2` (single isomer, unassigned) [Example 47, 4-((2R,4s,6S)-2-(difluoromethyl)-7-((5-methoxy-7-methyl-1H-indol-4-yl)methyl)-7-azaspiro[3.5]nonan-6-yl)benzoic acid or 4-((2S,4r,6S)-2-(difluoromethyl)-7-((5-methoxy-7-methyl-1H-indol-4-yl)methyl)-7-azaspiro[3.5]nonan-6-yl)benzoic acid], the IC50 on human C3bBb is < 0.01 µM; in experiment [1] it was < 0.1 µM.
Consider `COc1cc(C)c2[nH]ccc2c1CN1CC[C@]2(C[C@H]1c1ccc(C(=O)O)cc1)C[C@@H](C(F)(F)F)C2` (single isomer, unassigned) [Example 48, 4-((2R,4s,6S)-7-((5-methoxy-7-methyl-1H-indol-4-yl)methyl)-2-(trifluoromethyl)-7-azaspiro[3.5]nonan-6-yl)benzoic acid or 4-((2S,4r,6S)-7-((5-methoxy-7-methyl-1H-indol-4-yl)methyl)-2-(trifluoromethyl)-7-azaspiro[3.5]nonan-6-yl)benzoic acid], for which the IC50 on human C3bBb is < 0.01 µM; in experiment [1] it was < 0.1 µM.
In the same order, the values of `COc1cc(C)c2[nH]ccc2c1CN1CC[C@]2(C[C@H]1c1ccc(C(=O)O)cc1)C[C@@H](C(F)(F)F)C2` (single isomer, unassigned) [Example 49, 4-((2R,4s,6S)-7-((5-methoxy-7-methyl-1H-indol-4-yl)methyl)-2-(trifluoromethyl)-7-azaspiro[3.5]nonan-6-yl)benzoic acid or 4-((2S,4r,6S)-7-((5-methoxy-7-methyl-1H-indol-4-yl)methyl)-2-(trifluoromethyl)-7-azaspiro[3.5]nonan-6-yl)benzoic acid] are < 0.01 µM and < 0.1 µM.
`COc1cc(C)c2[nH]ccc2c1CN1CC[C@]2(C[C@H]1c1ccc(C(=O)O)cc1)C[C@@H](C#N)C2` (single isomer, unassigned) [Example 52, 4-((2R,4s,6S)-2-cyano-7-((5-methoxy-7-methyl-1H-indol-4-yl)methyl)-7-azaspiro[3.5]nonan-6-yl)benzoic acid or 4-((2S,4r,6S)-2-cyano-7-((5-methoxy-7-methyl-1H-indol-4-yl)methyl)-7-azaspiro[3.5]nonan-6-yl)benzoic acid]: the IC50 at human C3bBb was < 0.01 µM; in experiment [1] it was < 0.1 µM.
On the same counts, the results for `COc1cc(C)c2[nH]ccc2c1CN1CC[C@]2(C[C@H]1c1ccc(C(=O)O)cc1)C[C@@H](C#N)C2` (single isomer, unassigned) [Example 55, 4-((2R,4s,6S)-2-cyano-7-((5-methoxy-7-methyl-1H-indol-4-yl)methyl)-7-azaspiro[3.5]nonan-6-yl)benzoic acid or 4-((2S,4r,6S)-2-cyano-7-((5-methoxy-7-methyl-1H-indol-4-yl)methyl)-7-azaspiro[3.5]nonan-6-yl)benzoic acid] are < 0.01 µM and < 0.1 µM.
Turning to `COc1cc(C)c2[nH]ccc2c1CN1CC[C@]2(C[C@H]1c1ccc(C(=O)O)cc1)C[C@@H](OC(F)F)C2` (single isomer, unassigned) [Example 56, 4-((2R,4s,6S)-2-(difluoromethoxy)-7-((5-methoxy-7-methyl-1H-indol-4-yl)methyl)-7-azaspiro[3.5]nonan-6-yl)benzoic acid or 4-((2S,4r,6S)-2-(difluoromethoxy)-7-((5-methoxy-7-methyl-1H-indol-4-yl)methyl)-7-azaspiro[3.5]nonan-6-yl)benzoic acid], the IC50 at human C3bBb was < 0.01 µM; in experiment [1], < 0.1 µM.
For `COc1cc(C)c2[nH]ccc2c1CN1CC[C@]2(C[C@H]1c1ccc(C(=O)O)cc1)C[C@@H](OC(F)F)C2` (single isomer, unassigned) [Example 57, 4-((2R,4s,6S)-2-(difluoromethoxy)-7-((5-methoxy-7-methyl-1H-indol-4-yl)methyl)-7-azaspiro[3.5]nonan-6-yl)benzoic acid or 4-((2S,4r,6S)-2-(difluoromethoxy)-7-((5-methoxy-7-methyl-1H-indol-4-yl)methyl)-7-azaspiro[3.5]nonan-6-yl)benzoic acid], the results for the IC50 (on human C3bBb; in experiment [1]) were < 0.01 µM and < 0.1 µM, respectively.
As to `COc1cc(C)c2[nH]ccc2c1CN1CC[C@]2(C[C@H]1c1ccc(C(=O)O)cc1)C[C@@](C)(O)C2` (single isomer, unassigned) [Example 60, 4-((2R,4s,6S)-2-hydroxy-7-((5-methoxy-7-methyl-1H-indol-4-yl)methyl)-2-methyl-7-azaspiro[3.5]nonan-6-yl)benzoic acid or 4-((2S,4r,6S)-2-hydroxy-7-((5-methoxy-7-methyl-1H-indol-4-yl)methyl)-2-methyl-7-azaspiro[3.5]nonan-6-yl)benzoic acid], the figures for the IC50 (on human C3bBb; in experiment [1]) were 0.01 to 0.025 µM and 0.1 to 0.2 µM, respectively.
On the same counts, the results for `COc1cc(C)c2[nH]ccc2c1CN1CC[C@]2(C[C@H]1c1ccc(C(=O)O)cc1)C[C@@H](F)C2` (single isomer, unassigned) [Example 62, 4-((2R,4s,6S)-2-fluoro-7-((5-methoxy-7-methyl-1H-indol-4-yl)methyl)-7-azaspiro[3.5]nonan-6-yl)benzoic acid or 4-((2S,4r,6S)-2-fluoro-7-((5-methoxy-7-methyl-1H-indol-4-yl)methyl)-7-azaspiro[3.5]nonan-6-yl)benzoic acid] are < 0.01 µM and < 0.1 µM.

The values above are taken from patent US20250289804A1, “SUBSTITUTED INDOLE COMPOUNDS AND METHODS OF USE THEREOF” (NOVARTIS PHARMA AG, priority 2021, published 2025).
